8 compounds from patent US20110142866A1, “PEPTIDE ANALOGUES AND CONJUGATES THEREOF” (Eldrug S.A., priority 2007, published 2011) can be followed below.

Several values for one entry are separate records, joined by “and”; a condition that tells them apart may be missing. Equal entries are not always repeated. Entries after “also recorded” stand apart in the source; their conditions may differ.

Common to all, as to type: in vivo, SJL/J mice
For assay [1], the system named is IL-10 secretion by T cells. Description: IL-10 ELISpot of spleen cells from immunized mice. The note with it: for IL-10: Table 2, peptide analogues conjugated to reduced mannan-KLH; for IL-10 production by T cells (in words): peptide conjugated to reduced mannan, two injections. Details: key to IL-10: −: negative; +/−: very weak; +: weak; ++: moderate; +++: strong. As to the method: (§1) Female 6-8 week old SJL/J mice used in all experiments, were purchased from Walter and Eliza Hall Institute (VIC Australia) and housed at the Biological Research Laboratory at Burnet Institute at Austin, Heidelberg, Australia. SJL/J mice were immunized twice on days 0, 14 intradermally (base of tail) with 50 μg MBP83-99 peptide analogue-KLH-reduced mannan.
(§2) ELISpot analyses specific T cell responses to antigens by detecting the secretion of specific cytokines. Spleen cells from immunized SJL/J mice were isolated 14 days after immunization and assessed by ELISpot for IFN-γ, IL-4 or IL-10 secretion by T cells. IFN-γ ELISpot assay was performed on MultiScreen-IP Filter Plate (MAIP S4510) with hydrophobic PVDF filters (Millipore, UK) while IL-4 and IL-10 ELISpot was performed on MultiScreen-HA Filter Plate (MAHA S4510) with mixed cellulose esters filters (Millipore, UK). MAIP S4510 plates were pre-wet with 50 μl of 70% ethanol, washed 5 times with 200 μl sterile PBS and coated with 70 μl of 5 μg/ml anti-IFN-γ capture antibody, AN18 (Mabtech, Australia) in PBS and left to incubate at 4° C. O/N. While 70 μl of 5 μg/ml anti-IL-4 and anti-IL-10 capture antibody (Mabtech, Australia) was added directly to MAHA S4510 plates and incubated at 4° C. O/N without 70% ethanol treatment. Following 5 washes with PBS, plates were blocked by adding 200 μl of culture media (supplemented with 2.5% FCS) and incubated for 2 hours at 37° C. The blocking media was discarded and 10 μg/ml recall peptides (MBP83-99 peptide analogues not conjugated to KLH-reduced mannan) were added into each defined well. Con A (1.0 μg/ml; IL-4 and IFN-γ) or LPS (1.0 μg/ml; IL-10) were used as an internal positive controls and no peptide was used as negative control. Triplicate wells were set up for each condition. 5×10^5 spleen cells in 100 μl culture media were seeded into each well and incubated for 18 hours for IFN-γ, 24 hours for IL-4 and 48 hours for IL-10 at 37° C. Plates were washed 5 times PBS/0.05% Tween 20 and 5 times PBS and incubated for 2 hours at RT with anti-murine IFN-γ, IL-4 or IL-10 monoclonal antibody-biotin. Plates were washed and streptavidin-ALP was added at 1.0 μg/ml and incubated for 2.0 hours at RT. Spots of activity were detected using a colorimetric AP kit (Biorad, Hercules, Calif. USA) and counted using an AID ELISpot plate reader (Autoimmun Diagnostika GmbH, Germany). Data are presented as mean spot forming units (sfu) per 0.5×10^6 cells +/−standard error of the mean (SEM).

The test system of assay [2] is respective peptides conjugated to BSA or KLH. The experiment in a line: ELISA total IgG antibody responses to the respective peptide. The arrangement: key to Antibody: −: negative; +/−: very weak; +: weak; ++: moderate; +++: strong. On the procedure: Blood was collected and sera isolated from mice prior to and 4 weeks after immunization with CFA or 14 days after the last immunization with reduced mannan conjugates. MBP87-99 or [A^91, A^96]MBP87-99 peptides conjugated to BSA or KLH were coated onto polyvinyl chloride (PVC) microtiter plates at 10 μg/ml in 0.2 M NaHCO3 buffer, pH 9.6, 0/N at 4° C. Non-specific binding was blocked with 2% BSA for 1.0 h at RT. After washing (0.05 Tween 20/PBS), serial dilutions of sera were added and incubated for a further 2 h at RT. The plates were washed and bound antibody was detected using HRP-conjugated sheep anti-mouse antibody (1/1000 dilution in PBS) (Amersham, UK) and developed using 2,2′-azino-di(3-ethylbenzthiazoline)6-sulfonic acid (ABTS) (Sigma, UK). Absorbance at 405 nm was recorded using a Fluostar Optima microplate reader (BMG labtech, Offenburg, Germany).
ELISpot assays for IFN-γ and IL-4 secretion by T cells and ELISA assays for binding of sera to native MBP protein or peptide were carried out as previously described^3, 4, 20, 21. Mean values were compared using the Student's two-tailed t-test. P value threshold of p<0.01 indicates a statistically significant difference.

The subject of assay [3] is IL-4 secretion by T cells. Description: IL-4 ELISpot of spleen cells from immunized mice. Details: key to IL-4: −: negative; +/−: very weak; +: weak; ++: moderate; +++: strong. The note with it: for IL-4 responses: peptide conjugated to reduced mannan, two injections. On the procedure:
as §1, §2
MBP87-99, [R^91, A^96]MBP87-99 or [A^91, A^96]MBP87-99 peptides were dissolved in PBS and emulsified in an equal volume of complete Freund's adjuvant (CFA) which contained 1.0 mg/ml of heat killed Mycobacterium tuberculosis H37RA (Sigma, Victoria, Australia). SJL/J mice were given one subcutaneous injection containing 50 μg peptide into the base of tail.
SJL/J mice were immunized twice on days 0 and 14 intradermally (base of tail) with 50 μg MBP87-99-KLH-reduced mannan, [R^91, A^96]MBP87-99-KLH-reduced mannan or [A^91, A^96]MBP87-99-KLH-reduced mannan conjugates.
ELISpot detects specific T cell responses to antigens by measuring the secretion of specific cytokines from individual cells. Spleen cells from immunized SJL/J mice were isolated 28 days after CFA immunization or 14 days after the last immunization with reduced mannan-peptides and assessed by ELISpot for IFN-γ and IL-4 secretion by T cells. IFN-γ ELISpot assay was performed on MultiScreen-IP Filter Plate (MAIP S4510) with hydrophobic PVDF filters (Millipore, UK), while IL-4 ELISpot assays were performed on MultiScreen-HA Filter Plate (MAHA S4510) with mixed cellulose esters filters (Millipore, UK). MAIP S4510 plates were pre-weted with 50 μl of 70% ethanol, washed 5 times with 200 μl of sterile phosphate-buffered saline (PBS) and coated with 70 μl of 5 μg/ml anti-IFN-γ capture antibody, AN18 (Mabtech, Australia) in PBS and incubated O/N at 4° C. […]

Where [4] appears, read: Table 2, peptide analogues conjugated to reduced mannan-KLH.
Setting [5] is: Table 3, peptide analogues emulsified in complete Freund's adjuvant.
Setting [6] is: peptide conjugated to reduced mannan.
[7] abbreviates: 50 μg peptide conjugated to reduced mannan, two intradermal injections, spleen cells 14 days post-immunization.
The mark [8] stands for this setting: 50 μg peptide emulsified in CFA, one injection, spleen cells 28 days.

As to “E N P V V H F F Y N I V T P R T P (ENPVVHFFYNIVTPRTP) [[Y^91]MBP83-99]”, in assay [1], the IL-10 entry is on record as “++”. Moreover, the “IL-10 production by T cells (in words)” value in assay [1] is reported as “moderate levels”. The results for the Antibody result in assay [2] (setting [4]) and in assay [2] (setting [5]) were “+++” and “−”, respectively. Further, in assay [2] (setting [6]), the “subclass of the antibodies induced” value is given as “IgG1”. The “IL-4 secreting T cells (in words)” value in assay [3] (setting [7]) is on record as “high levels”. For the same compound, the IL-4 result in assay [3] (setting [4]) is “+++”; in assay [3] (setting [5]) it was “−”.
As to “E N P V V H F F E N I V T P R T P (ENPVVHFFENIVTPRTP) [[E^91]MBP83-99]”, the figures for the Antibody entry in assay [2] (setting [4]) and in assay [2] (setting [5]) were “+++” and “++”, respectively. Also, the “subclass of the antibodies induced” value in assay [2] (setting [6]) was “IgG1”. In addition, in assay [3] (setting [7]), the “IL-4 secreting T cells (in words)” value is listed as “high levels”. For the same compound, the IL-4 result in assay [3] (setting [4]) is “+++”; in assay [3] (setting [5]) it was “−”.
As to `CC[C@H](C)[C@@H]1NC(=O)[C@H](CC(N)=O)NC(=O)[C@H](CCCCN)NC(=O)[C@H](Cc2ccccc2)NC(=O)[C@H](Cc2ccccc2)NC(=O)[C@H](Cc2c[nH]cn2)NC(=O)[C@H](C(C)C)NC(=O)[C@H](C(C)C)NC(=O)[C@@H]2CCCN2C(=O)[C@H](CC(N)=O)NC(=O)[C@H](CCC(=O)O)NC(=O)[C@@H]2CCCN2C(=O)[C@H]([C@@H](C)O)NC(=O)[C@H](CCCNC(=N)N)NC(=O)[C@@H]2CCCN2C(=O)[C@H]([C@@H](C)O)NC(=O)[C@H](C(C)C)NC1=O` [cyclo(83-99)MBP83-99, cyclo(83-99)E N P V V H F F K N I V T P R T P], in assay [2] (peptide emulsified in CFA), the “IgG antibody responses (in words)” value is on record as “antibodies were generated”. Also, the “IL-4 secreting T cells (in words)” value in assay [3] (setting [7]) is “did not stimulate; also recorded: weak or no”; in assay [3] (setting [8]) it was “induced IL-4”. Moreover, in assay [3] (setting [5]), the IL-4 result was “−”.
As to “E N P V V H F F A N I V T P R T P (ENPVVHFFANIVTPRTP) [[A^91]MBP83-99]”, the Antibody result in assay [2] (setting [4]) is “+”; in assay [2] (setting [5]), “++”. The “subclass of the antibodies induced” value in assay [2] (setting [6]) was “IgG1”. Further, in assay [2] (setting [6]), the “total IgG antibody titer” value is listed as 1/640. For the same compound, the “IgG antibody responses (in words)” value in assay [2] (peptide emulsified in CFA) was “able to induce IgG antibody responses”. Further, the “IL-4 secreting T cells (in words)” value in assay [3] (setting [7]) was “high levels”; in assay [3] (setting [8]), “not able to generate IL-4”. For the same compound, the IL-4 result in assay [3] (setting [4]) is given as “+++”; in assay [3] (setting [5]), “−”. In assay [3], the IL-4 responses entry is “up to 600 SFU/0.5 million cells”.
For “E N P V V H F F R N I V T A R T P (ENPVVHFFRNIVTARTP) [[R^91, A^96]MBP83-99]”, the Antibody entry in assay [2] (setting [4]) is “+++”; in assay [2] (setting [5]), “++”. For the same compound, in assay [2] (setting [6]), the “subclass of the antibodies induced” value is “IgG1”. Further, the “IL-4 secreting T cells (in words)” value in assay [3] (setting [7]) was “high levels”. For the same compound, the IL-4 entry in assay [3] (setting [4]) is reported as “+++”; in assay [3] (setting [5]) it was “++”.
As to “E N P V V H F F F N I V T P R T P (ENPVVHFFFNIVTPRTP) [[F^91]MBP83-99]”, in assay [1], the IL-10 result was “++” and the “IL-10 production by T cells (in words)” value was “moderate levels; also recorded: induced”. In addition, in assay [2] (setting [4]), the Antibody result was “+/−”. Moreover, the Antibody entry in assay [2] (setting [5]) is given as “++”. Moreover, in assay [2] (setting [6]), the “IgG antibody responses (in words)” value is recorded as “weak” and the “total IgG antibody titer” value is listed as 1/800. Moreover, the “IL-4 secreting T cells (in words)” value in assay [3] (setting [7]) is “high levels; also recorded: induced”. Besides, the IL-4 entry in assay [3] (setting [4]) was “+++”. Further, the IL-4 entry in assay [3] (setting [5]) was “−”.
Consider “E N P V V H F F K N I V T P R T P (ENPVVHFFKNIVTPRTP) [MBP83-99, reference compound]”, for which the figures for the Antibody entry in assay [2] (setting [4]) and in assay [2] (setting [5]) were “+++” and “−”, respectively. Moreover, the “IgG antibody responses (in words)” value in assay [2] (peptide emulsified in CFA) is given as “did not generate IgG antibodies”. The “IL-4 secreting T cells (in words)” value was “did not stimulate; also recorded: weak or no; also recorded: low levels” in assay [3] (setting [7]) and “did not induce IL-4” in assay [3] (setting [8]). Further, the IL-4 result in assay [3] (setting [4]) and in assay [3] (setting [5]) was “−” in each case.
“cyclo(83-99)E N P V V H F F A N I V T P R T P (ENPVVHFFANIVTPRTP; cyclised or stapled) [cyclo(83-99)[A^91]MBP83-99]”: the Antibody entry is reported as “+/−” in assay [2] (setting [4]) and “+” in assay [2] (setting [5]). In addition, the “total IgG antibody titer” value in assay [2] (setting [6]) is 1/800 and 1/1600. Moreover, in assay [2] (peptide emulsified in CFA), the “IgG antibody responses (in words)” value is reported as “enhanced”. For the same compound, the “IL-4 secreting T cells (in words)” value is “negative” in assay [3] (setting [7]) and “did generate IL-4” in assay [3] (setting [8]). For the same compound, the IL-4 entry in assay [3] (setting [4]) and in assay [3] (setting [5]) was “−” each time. In assay [3], the IL-4 responses entry is “up to 70 SFU/0.5 million cells”.
